Assays:
Format in all cases: in vivo
db/db mice [1] = experiment: Serum insulin by Elisa in db/db mice (Example 4); details: single agent 0.2 g/kg per day by gavage, two weeks, mean ± SD
Source text: (§1) Effects of limonoid compound, acarbose or combination thereof on blood glucose and insulin in mouse type II diabetes model
(§2) In the present embodiment, the limonoid compound was selected from nomilin, deacetylnomilin, nomilin acid, deacetylnomilin acid glycoside, and acarbose single administration group, nomilin single administration group, deacetylnomilin single administration group, nomilin acid single administered group, deacetylnomilin acid glycoside single administration group, and respective combination thereof with acarbose administration groups were set.
(§3) Conditions for experimental feeding: as type II diabetes model mice, 6-week-old SPF-grade db/db mice were purchased from the Nanjing Model Biology Institute, and subjected to experimental feeding after 7 days of preliminary feeding. It should be noted that the conditions for raising the mice were as follows: the temperature was 23±1° C., the humidity was 55±10%, the lights were turned on between 7 am and 7 pm (the lights were turned off at other time), and the mice were allowed to freely take in water and feed. The experimental feed was mouse growth-stable feed (GB M2118), and the daily feeding and management of the animals were under the responsibility of the animal security department, which provided the animals with sufficient diet and fresh drinking water daily. […]

db/db mice [2] = experiment: Serum leptin by Elisa in db/db mice (Example 2); details: single agent 0.04 g/kg per day by gavage, two weeks, mean ± SD
Source text: (§4) Effects of limonoid compound, acarbose or combination thereof on blood glucose and leptin in mouse type II diabetes model
(§5) In the present example, db/db mice (line name BKS.Cg-Dock7^m+/+Lepr^db/Nju) were used to perform hypoglycemic efficacy evaluation test of animals (blood glucose level and leptin). The limonoid compound was selected from obacunone, isoobacunoic acid and obacunone glycoside, and acarbose single administration group, obacunone single administration group, isoobacunoic acid single administration group, obacunone glycoside single administered group, and respective combination thereof with acarbose administration groups were set.
as §3, with “feed.” for “feed. The experimental feed was mouse growth-stable feed (GB M2118), and the daily feeding and management of the animals were under the responsibility of the animal security department, which provided the animals with sufficient diet and fresh drinking water daily.”

db/db mice [3] = experiment: Blood glucose in mouse type II diabetes model, db/db mice (Example 2); details: single agent 0.04 g/kg per day by gavage, two weeks, 1 h after last administration, mean ± SD
Source text: as §4, §5
as §3, with “feed.” for “feed. The experimental feed was mouse growth-stable feed (GB M2118), and the daily feeding and management of the animals were under the responsibility of the animal security department, which provided the animals with sufficient diet and fresh drinking water daily.”

db/db mice [4] = experiment: Blood glucose in mouse type II diabetes model, db/db mice (Example 4); details: single agent 0.2 g/kg per day by gavage, two weeks, 1 h after last administration, mean ± SD
Source text: as §1, §2
Conditions for experimental feeding: as type II diabetes model mice, 6-week-old SPF-grade db/db mice were purchased from the Nanjing Model Biology Institute, and subjected to experimental feeding after 7 days of preliminary feeding. […]
Gavage doses: nomilin at a dose of 0.2 g/kg was gavaged per day for the nomilin group, deacetylnomilin at a dose of 0.2 g/kg was gavaged per day for the deacetylnomilin group, nomilin acid at a dose of 0.2 g/kg was gavaged per day for the nomilin acid group, deacetylnomilin acid glycoside at a dose of 0.2 g/kg was gavaged per day for the deacetylnomilin acid glycoside group, acarbose at a dose of 0.2 g/kg was gavaged per day for the acarbose group, nomilin at a dose of 0.1 g/kg and acarbose at a dose of 0.1 g/kg were simultaneously gavaged per day for the nomilin combination group, nomilin acid at a dose of 0.1 g/kg and acarbose at a dose of 0.1 g/kg were simultaneously gavaged per day for the nomilin acid combination group, deacetylnomilin at a dose of 0.1 g/kg and acarbose at a dose of 0.1 g/kg were simultaneously gavaged per day for the deacetylnomilin combination group, deacetylnomilin acid glycoside at a dose of 0.1 g/kg and acarbose at a dose of 0.1 g/kg were simultaneously gavaged per day for the deacetylnomilin acid glycoside combination group, the gavage volume was 10 mL/kg, and the normal group and the model group were administrated with 10 mL/kg of distilled water. […] The data were expressed as mean and standard deviation. […]

## C[C@H]1O[C@H](O[C@H]2[C@H](O)[C@@H](O)[C@@H](O[C@H]3[C@H](O)[C@@H](O)C(O)O[C@@H]3CO)O[C@@H]2CO)[C@H](O)[C@@H](O)[C@@H]1N[C@H]1C=C(CO)[C@@H](O)[C@H](O)[C@H]1O (stereo partly shown) [Acarbose, acarbose]
db/db mice [1]
  Insulin: 8.45 ± 2.21 pg/mL
db/db mice [2]
  Leptin: 35.57 ± 2.98 pg/mL
db/db mice [3]
  Blood glucose value: 16.9 ± 4.0 mmol/L
db/db mice [4]
  Blood glucose value: 13.6 ± 2.9 mmol/L
